In the NIST ThermoML archive (doi:10.1021/je100362p):

Key:
[1] = xn = mol fraction of the nth substance listed; conditions: 308.15 K, 101 kPa, Liquid; for speed of sound: Sing-around technique in a fixed-path interferometer
[2] = refractive index (Na D-line) (dimensionless); xn = mol fraction of the nth substance listed; conditions: 101 kPa, Liquid, Standard Abbe refractometry

COc1ccccc1 [anisole] + CCCCCCCCCCO
[1]
Conditions	mass density [kg/m3]	speed of sound [m/s]
x1 = 0.0817	826.944	–
x1 = 0.144	832.875	–
x1 = 0.2047	839.02	–
x1 = 0.273	846.4	–
x1 = 0.3484	855.195	–
x1 = 0.4099	862.929	–
x1 = 0.4874	873.48	–
x1 = 0.544	881.832	1332.8
x1 = 0.6071	891.877	1333.6
x1 = 0.6699	902.722	1335
x1 = 0.7359	915.191	1337.6
x1 = 0.8171	932.241	1343
x1 = 0.91	954.549	1352.9
x1 = 0.9464	964.201	1357.9
x1 = 1	979.712	1366.5

refractive index, [2]
Conditions	298.15 K	303.15 K	308.15 K
x1 = 0.0817	1.43761	1.4356	1.43301
x1 = 0.144	1.44029	1.43803	1.43539
x1 = 0.2047	1.44304	1.44069	1.43799
x1 = 0.273	1.44629	1.44389	1.44125
x1 = 0.3484	1.45029	1.44799	1.44522
x1 = 0.4099	1.45394	1.45164	1.44877
x1 = 0.4874	1.45908	1.45684	1.45398
x1 = 0.544	1.46319	1.46099	1.45815
x1 = 0.6071	1.46829	1.46616	1.46323
x1 = 0.6699	1.47385	1.47181	1.46884
x1 = 0.7359	1.48043	1.47853	1.47539
x1 = 0.8171	1.48959	1.48774	1.48475
x1 = 0.91	1.50162	1.49999	1.49685
x1 = 0.9464	1.50672	1.50539	1.50231
x1 = 1	1.51495	1.51395	1.51095
